Reference: patent publication US20250057958A1, “CYTOTOXICITY TARGETING CHIMERAS FOR CCR2-EXPRESSING CELLS” (GLAXOSMITHKLINE INTELLECTUAL PROPERTY DEVELOPMENT LIMITED, priority 2022, published 2025)

Tests used:
[1] = target: human alpha1 nicotinic acetylcholine (nACh) receptor (Homo sapiens, UniProt P02708+Q07001); assay: Nicotinic acetylcholine receptor antagonism assay (IONFlux automated patch clamp); type: cell-based; details: for IC50: nAChR antagonism, stimulated with ACh, average if more than one run
Sequence of human alpha1 nicotinic acetylcholine (nACh) receptor (P02708 21-457): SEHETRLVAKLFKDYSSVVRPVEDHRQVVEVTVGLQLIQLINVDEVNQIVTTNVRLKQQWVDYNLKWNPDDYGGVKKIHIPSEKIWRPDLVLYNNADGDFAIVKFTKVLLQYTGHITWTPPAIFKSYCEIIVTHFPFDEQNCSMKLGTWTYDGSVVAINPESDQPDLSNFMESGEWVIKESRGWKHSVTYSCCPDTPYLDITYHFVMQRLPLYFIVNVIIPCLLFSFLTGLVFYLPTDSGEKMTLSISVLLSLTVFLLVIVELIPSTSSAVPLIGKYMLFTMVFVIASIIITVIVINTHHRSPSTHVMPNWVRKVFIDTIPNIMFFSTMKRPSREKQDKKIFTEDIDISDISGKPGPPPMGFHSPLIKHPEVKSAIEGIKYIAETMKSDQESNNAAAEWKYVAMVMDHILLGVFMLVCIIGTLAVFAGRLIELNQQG
Sequence of human alpha1 nicotinic acetylcholine (nACh) receptor (P11230 24-501 partner): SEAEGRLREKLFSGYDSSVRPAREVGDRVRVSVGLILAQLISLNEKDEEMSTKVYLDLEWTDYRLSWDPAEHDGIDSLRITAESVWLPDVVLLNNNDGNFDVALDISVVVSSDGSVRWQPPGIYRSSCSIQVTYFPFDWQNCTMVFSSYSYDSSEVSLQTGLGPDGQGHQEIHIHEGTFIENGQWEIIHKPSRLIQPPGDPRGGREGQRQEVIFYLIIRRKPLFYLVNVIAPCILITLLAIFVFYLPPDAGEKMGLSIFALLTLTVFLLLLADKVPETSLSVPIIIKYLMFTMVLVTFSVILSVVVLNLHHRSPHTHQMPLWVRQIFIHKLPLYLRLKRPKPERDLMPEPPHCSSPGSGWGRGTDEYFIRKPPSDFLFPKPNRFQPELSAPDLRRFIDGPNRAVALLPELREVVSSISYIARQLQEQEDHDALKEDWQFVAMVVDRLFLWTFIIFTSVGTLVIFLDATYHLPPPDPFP
Sequence of human alpha1 nicotinic acetylcholine (nACh) receptor (Q07001 22-517): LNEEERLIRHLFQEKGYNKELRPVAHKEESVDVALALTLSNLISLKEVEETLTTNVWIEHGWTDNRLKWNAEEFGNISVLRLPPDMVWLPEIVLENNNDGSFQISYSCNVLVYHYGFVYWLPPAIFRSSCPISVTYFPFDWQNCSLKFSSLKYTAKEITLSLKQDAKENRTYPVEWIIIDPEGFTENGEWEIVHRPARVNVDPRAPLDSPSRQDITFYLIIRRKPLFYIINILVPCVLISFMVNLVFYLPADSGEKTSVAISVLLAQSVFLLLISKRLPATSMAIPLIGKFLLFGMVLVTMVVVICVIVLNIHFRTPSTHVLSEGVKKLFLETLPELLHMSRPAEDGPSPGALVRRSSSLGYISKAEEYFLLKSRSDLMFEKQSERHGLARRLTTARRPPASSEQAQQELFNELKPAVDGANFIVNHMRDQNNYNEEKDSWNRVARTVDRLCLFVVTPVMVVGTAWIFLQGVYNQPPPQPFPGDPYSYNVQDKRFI
Excerpt: Cells expressing human alpha1 nicotinic acetylcholine (nACh) receptor (nAChR) were washed and dissociated using Trypsin containing buffer. Cells were then washed and seeded at a density of 3-5 million cells/mL and allowed to grow for 3 days. […] The receptor was then stimulated via addition of acetylcholine (ACh) and activation of the receptor was monitored via the IONFlux automated patch clamp system. IonFlux Data Analyzer software was utilized to perform leak subtraction and measure (min) peak current amplitude.
Data processing: (1) Current values recorded for vehicle only applications in individual traps/patterns were subtracted from corresponding current amplitude values for control, test article and control+test article. (2) Control response was calculated as % of the average response of the 3rd out of total 3 ACh (10 mM) applications alone. In rare situations, if the 3rd ACh response was obscured due to technical artifacts, the 2nd and/or 1st ACh (10 mM) application was considered as control. The peak current amplitude generated in the presence of each test article concentration was then used to calculate the % inhibition as compared to control response (10 mM ACh alone). These estimates were further corrected for vehicle response and run down corrected by normalizing with time matched control responses (10 mM ACh alone). The corrected percentages were then fit with a non-linear function in GraphPad Prism 6 (or later versions) to determine the IC50.
Exclusion criteria: (i) any n's with poor recording quality, (ii) control current amplitude <500 pA or (iii) significant outliers, as determined by the Grubbs' test.
ARMs compounds of Formula (I) of the invention were tested for antagonism of the nAChR in the above assay in […] experimental runs and the results are shown in Table 5 below. Antagonistic activity of the compounds of Formula (I) of the invention is reported as an IC50 value (half maximal inhibitory concentration) and the maximum percentage antagonism observed at the highest concentration of compound of Formula (I) tested, as indicated in Table 5. For compounds tested in more than one experimental run, the IC50 value is reported as an average.

[2] = target: T1, CHOK1 cells engineered to overexpress human CCR2 (Homo sapiens, UniProt P41597); assay: Antibody dependent cellular cytotoxicity (ADCC) reporter assay; type: cell-based; details: with anti-cotinine antibody (SEQ ID NO: 11/12, human IgG1 Fc S239D/I332E); Jurkat FcγRIIIa NFAT-luciferase reporter cells; 12-18 hours; average if more than one run; read-out: ADCC Reporter Assay pEC50 (converted)
T1 construct: expressed in transfected cells; host or cells: CHOK1 cells
Experimental: An antibody dependent cellular cytoxocity reporter assay was conducted using the following four assay components: (i) ARM compound of Formula (I) targeting CCR2 (concentrations ranging from 1 pM to 10 μM) (ii) anti-cotinine antibody having a heavy chain sequence of SEQ ID NO: 11 and a light chain sequence of SEQ ID NO: 12 (rabbit variable region with human IgG1 Fc domain containing a DE mutation (S239D/I332E)) (concentrations ranging from 0.01 μg/mL to 200 μg/mL); (iii) target cells: CHOK1 cells engineered to overexpress either human CCR2 (typically 1000-20,000 cells perwell) and (iv) reporter cells: Jurkat cells engineered to express FcγRIIIa with the reporter gene luciferase under the control of the NFAT promoter (typically 3000-75,000 cells per well). Reagents were combined in a final volume of 20 μL in a 384—well tissue culture treated plate. All four assay components were incubated together for about 12-18 hours. Thereafter, BioGlo Detection reagent (Promega) was added to the wells to lyse the cells and provide a substrate for the luciferase reporter protein. Luminescence signal was measured on a microplate reader and signal:background was calculated by dividing the signal of a test well by the signal obtained when no ARM compound of Formula (I) was added. EC50 calculations were done using Graphpad Prism Software, specifically a nonlinear regression curve fit (Y=Bottom+(Top−Bottom)/(1+10 ^((Log EC50−X)*HillSlope))).
ARMs compounds of Formula (I) of the invention were tested for ADCC activity in the above assay in or more experimental runs and the results are shown in Table 3 below. Potency of the compounds of Formula (I) of the invention is reported as a pEC50 value. The pEC50 value is the negative log of the EC50 value, wherein the EC50 value is the half maximal effective concentration measured in molar (M). For compounds tested in more than one experimental run, the pEC50 value is reported as an average.

SMILES | IC50 [1] | EC50 [2] | other results
CC(=O)N[C@@H]1C[C@H](NC(C)(C)C)CC[C@@H]1N1CC[C@H](Nc2nc(CCNC(=O)[C@H]3CC[C@H](NC(=O)CCCO[C@H]4CC[C@H](OCCNC(=O)[C@H]5CC(=O)N(C)[C@@H]5c5cccnc5)CC4)CC3)nc3ccc(C(F)(F)F)cc23)C1=O [Example 4, (2S,3S)-N-(2-(((1R,4S)-4-(4-(((1S,4R)-4-((2-(4-(((S)-1-((1S,2R,4R)-2-Acetamido-4-(tert-butylamino)cyclohexyl)-2-oxopyrrolidin-3-yl)amino)-6-(trifluoromethyl)quinazolin-2-yl)ethyl)carbamoyl)cyclohexyl)amino)-4-oxobutoxy)cyclohexyl)oxy)ethyl)-1-methyl-5-oxo-2-(pyridin-3-yl)pyrrolidine-3-carboxamide] | > 100 µM | 0.251 nM | Emax at 100 µM ([1]; maximum percentage antagonism at highest concentration tested, 100 μM, read-out: Maximum Response (%)): 48%
CC(=O)N[C@@H]1C[C@H](NC(C)(C)C)CC[C@@H]1N1CC[C@H](Nc2nc(C3CCN(C(=O)[C@H]4CC[C@H](NC(=O)CCCO[C@H]5CC[C@H](OCCNC(=O)[C@H]6CC(=O)N(C)[C@@H]6c6cccnc6)CC5)CC4)CC3)nc3ccc(C(F)(F)F)cc23)C1=O [Example 9, (2S,3S)-N-(2-(((1R,4S)-4-(4-(((1S,4R)-4-(4-(4-(((S)-1-((1S,2R,4R)-2-Acetamido-4-(tert-butylamino)cyclohexyl)-2-oxopyrrolidin-3-yl)amino)-6-(trifluoromethyl)quinazolin-2-yl)piperidine-1-carbonyl)cyclohexyl)amino)-4-oxobutoxy)cyclohexyl)oxy)ethyl)-1-methyl-5-oxo-2-(pyridin-3-yl)pyrrolidine-3-carboxamide] | > 11.1 µM | 0.631 nM | Emax at 11.1 µM ([1]; maximum percentage antagonism at highest concentration tested, 11.1 μM, read-out: Maximum Response (%)): 2%
CC(=O)N[C@@H]1C[C@H](NC(C)(C)C)CC[C@@H]1N1CC[C@H](Nc2nc(NCC3CCN(C(=O)[C@H]4CC[C@H](NC(=O)CCCO[C@H]5CC[C@H](OCCNC(=O)[C@H]6CC(=O)N(C)[C@@H]6c6cccnc6)CC5)CC4)CC3)nc3ccc(C(F)(F)F)cc23)C1=O [Example 2, (2S,3S)-N-(2-(((1R,4S)-4-(4-(((1S,4R)-4-(4-(((4-(((S)-1-((1S,2R,4R)-2-Acetamido-4-(tert-butylamino)cyclohexyl)-2-oxopyrrolidin-3-yl)amino)-6-(trifluoromethyl)quinazolin-2-yl)amino)methyl)piperidine-1-carbonyl)cyclohexyl)amino)-4-oxobutoxy)cyclohexyl)oxy)ethyl)-1-methyl-5-oxo-2-(pyridin-3-yl)pyrrolidine-3-carboxamide] | > 11.1 µM | 0.316 nM | Emax at 11.11 µM ([1]; maximum percentage antagonism at highest concentration tested, 11.11 μM, read-out: Maximum Response (%)): 9%
CC(=O)N[C@@H]1C[C@H](NC(C)(C)C)CC[C@@H]1N1CC[C@H](Nc2nc(NC3CCN(C(=O)[C@H]4CC[C@H](NC(=O)CCCO[C@H]5CC[C@H](OCCNC(=O)[C@H]6CC(=O)N(C)[C@@H]6c6cccnc6)CC5)CC4)CC3)nc3ccc(C(F)(F)F)cc23)C1=O [Example 13, (2S,3S)-N-(2-(((1R,4S)-4-(4-(((1S,4R)-4-(4-((4-(((S)-1-((1S,2R,4R)-2Acetamido-4-(tert-butylamino)cyclohexyl)-2-oxopyrrolidin-3-yl)amino)-6-(trifluoromethyl)quinazolin-2-yl)amino)piperidine-1-carbonyl)cyclohexyl)amino)-4-oxobutoxy)cyclohexyl)oxy)ethyl)-1-methyl-5-oxo-2-(pyridin-3-yl)pyrrolidine-3-carboxamide] | 10.1 µM | 0.316 nM | Emax at 33.33 µM ([1]; maximum percentage antagonism at highest concentration tested, 33.33 μM, read-out: Maximum Response (%)): 68%
CC(=O)N[C@@H]1C[C@H](N(C)C(C)C)CC[C@@H]1N1CC[C@H](Nc2nc(CCCNC(=O)[C@H]3CC[C@H](NC(=O)CCCO[C@H]4CC[C@H](OCCNC(=O)[C@H]5CC(=O)N(C)[C@@H]5c5cccnc5)CC4)CC3)nc3ccc(C(F)(F)F)cc23)C1=O [Example 6, (2S,3S)-N-(2-(((1R,4S)-4-(4-(((1S,4R)-4-((3-(4-(((S)-1-((1S,2R,4R)-2-Acetamido-4-(isopropyl(methyl)amino)cyclohexyl)-2-oxopyrrolidin-3-yl)amino)-6-(trifluoromethyl)quinazolin-2-yl)propyl)carbamoyl)cyclohexyl)amino)-4-oxobutoxy)cyclohexyl)oxy)ethyl)-1-methyl-5-oxo-2-(pyridin-3-yl)pyrrolidine-3-carboxamide] | > 33.3 µM | 0.158 nM | Emax at 33.3 µM ([1]; maximum percentage antagonism at highest concentration tested, 33.3 μM, read-out: Maximum Response (%)): 48%
CC(=O)N[C@@H]1C[C@H](NC(C)(C)C)CC[C@@H]1N1CC[C@H](Nc2nc(NCCNC(=O)[C@H]3CC[C@H](NC(=O)CCCO[C@H]4CC[C@H](OCCNC(=O)[C@H]5CC(=O)N(C)[C@@H]5c5cccnc5)CC4)CC3)nc3ccc(C(F)(F)F)cc23)C1=O [Example 12, (2S,3S)-N-(2-(((1R,4S)-4-(4-(((1S,4R)-4-((2-((4-(((S)-1-((1S,2R,4R)-2-Acetamido-4-(tert-butylamino)cyclohexyl)-2-oxopyrrolidin-3-yl)amino)-6-(trifluoromethyl)quinazolin-2-yl)amino)ethyl)carbamoyl)cyclohexyl)amino)-4-oxobutoxy)cyclohexyl)oxy)ethyl)-1-methyl-5-oxo-2-(pyridin-3-yl)pyrrolidine-3-carboxamide] |  | 0.251 nM | 
CC(=O)N[C@@H]1C[C@H](NC(C)(C)C)CC[C@@H]1N1CC[C@H](Nc2nc(OCC3CCN(C(=O)[C@H]4CC[C@H](NC(=O)CCCO[C@H]5CC[C@H](OCCNC(=O)[C@H]6CC(=O)N(C)[C@@H]6c6cccnc6)CC5)CC4)CC3)nc3ccc(C(F)(F)F)cc23)C1=O [Example 8, (2S,3S)-N-(2-(((1R,4S)-4-(4-(((1S,4R)-4-(4-(((4-(((S)-1-((1S,2R,4R)-2-Acetamido-4-(tert-butylamino)cyclohexyl)-2-oxopyrrolidin-3-yl)amino)-6-(trifluoromethyl)quinazolin-2-yl)oxy)methyl)piperidine-1-carbonyl)cyclohexyl)amino)-4-oxobutoxy)cyclohexyl)oxy)ethyl)-1-methyl-5-oxo-2-(pyridin-3-yl)pyrrolidine-3-carboxamide] |  | 50.1 nM | 
CC(=O)N[C@@H]1C[C@H](NC(C)(C)C)CC[C@@H]1N1CC[C@H](Nc2nc(OC3CCN(C(=O)[C@H]4CC[C@H](NC(=O)CCCO[C@H]5CC[C@H](OCCNC(=O)[C@H]6CC(=O)N(C)[C@@H]6c6cccnc6)CC5)CC4)CC3)nc3ccc(C(F)(F)F)cc23)C1=O [Example 7, (2S,3S)-N-(2-(((1R,4S)-4-(4-(((1S,4R)-4-(4-((4-(((S)-1-((1S,2R,4R)-2-acetamido-4-(tert-butylamino)cyclohexyl)-2-oxopyrrolidin-3-yl)amino)-6-(trifluoromethyl)quinazolin-2-yl)oxy)piperidine-1-carbonyl)cyclohexyl)amino)-4-oxobutoxy)cyclohexyl)oxy)ethyl)-1-methyl-5-oxo-2-(pyridin-3-yl)pyrrolidine-3-carboxamide] |  | 79.4 nM | 
